Data published in ChEMBL document CHEMBL5356957, “Design, synthesis, biological evaluation and molecular docking of alkoxyaurones as potent pancreatic lipase inhibitors” (Bioorg Med Chem Lett, 2024).

Key:
[1] = target: T1, Pancreatic triacylglycerol lipase (Homo sapiens) (UniProt P16233)
T1 sequence (whole entry): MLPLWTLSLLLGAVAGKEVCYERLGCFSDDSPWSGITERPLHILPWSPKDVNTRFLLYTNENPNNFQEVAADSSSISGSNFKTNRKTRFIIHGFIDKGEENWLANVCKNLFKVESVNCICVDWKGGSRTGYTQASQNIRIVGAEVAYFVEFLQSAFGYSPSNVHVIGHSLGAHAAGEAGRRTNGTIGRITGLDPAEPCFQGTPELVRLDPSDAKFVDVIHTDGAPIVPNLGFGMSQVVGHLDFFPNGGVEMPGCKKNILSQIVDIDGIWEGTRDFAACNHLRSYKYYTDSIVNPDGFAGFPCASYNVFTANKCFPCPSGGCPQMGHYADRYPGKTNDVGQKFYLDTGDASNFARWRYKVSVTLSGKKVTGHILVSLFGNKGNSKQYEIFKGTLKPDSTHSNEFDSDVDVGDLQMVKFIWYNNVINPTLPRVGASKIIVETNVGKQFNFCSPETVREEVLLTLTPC
Description: Binding affinity to pancreatic lipase (unknown origin) assessed as Stem-Volmer quenching constant by fluorescence quenching based spectrophotometer analysis

[2] = target: T1, Pancreatic triacylglycerol lipase (Homo sapiens); remark: listed apart in the source
Description: Binding affinity to pancreatic lipase (unknown origin) assessed as quenching constant by fluorescence quenching based spectrophotometer analysis

[3] = target: T2, Pancreatic triacylglycerol lipase (Homo sapiens, UniProt P16233); assay: Inhibition of pancreatic lipase (unknown origin) by spectrophotometeric analysis
T2 sequence (P16233 whole entry): T1 sequence (whole entry)

Compound	KSV [1]	Kq [2]	IC50 [3] [µM]
O=c1c(O)c(-c2ccc(O)c(O)c2)oc2cc(O)cc(O)c12	13.3 10^4L/mol	8.35 10^13L/mol/s	–
O=C1/C(=C/c2ccccc2)Oc2cc(O)cc(O)c21	7.16 10^4L/mol	4.5 10^13L/mol/s	58.8
